Results reported in patent US6806077B1 (priority 1997, dated 2004).
Where two headings read alike, the source gives them in different places.

Experiments:
PrPres [1] = format: in vivo; conditions: C57BL/6 mice inoculated i.p. with strain C506M3; AmB 1 mg/kg from tA+15 days; sacrificed at tA+21 or tA+28; Western blot, versus untreated animals
PrPres [2] = test system: PrPres; parameters: species or system C57BL/6 mice; conditions: mouse, in vivo, ip, 25 mg/kg

Compound	inhibition of the accumulation of PrPres in the spleen (PrPres [1])	inhibition of the accumulation of PrPres in the spleen (PrPres [2])
C[C@@H]1[C@H](O)[C@@H](C)/C=C/C=C/C=C/C=C/C=C/C=C/C=C/[C@H](O[C@@H]2O[C@H](C)[C@@H](O)[C@H](N)[C@@H]2O)C[C@@H]2O[C@](O)(C[C@@H](O)C[C@@H](O)[C@H](O)CC[C@@H](O)C[C@@H](O)CC(=O)O[C@H]1C)C[C@H](O)[C@H]2C(=O)O [AmB, amphotericin B]	significant inhibition of the accumulation of PrPres	–
dextran sulphate [DS500]	–	significant inhibition of the accumulation of PrPres
